Measurements published in patent US4476328A, “Process for producing 3,3,3-trifluoropropyl substituted phenol” (Kureha Kagaku Kogyo Kabushiki Kaisha, priority 1980, dated 1984).

Test: electrical properties (dielectric constant, dielectric loss, volume resistivity)
Type: physicochemical
[1] = Table 5, Example 6, temperature not given

n-octyl-( 3,3,3-trifluoropropyl)benzene [n-octyl(3,3,3-trifluoropropyl)benzene]
Dielectric constant [1]: 4.18 | Dielectric loss (tanδ) [1]: 0.095% | Volume resistivity [1]: 1.08 × 10^14 Ω·cm | Dielectric constant (Table 6, Example 7, at 20° C.): 3.89 | Dielectric loss (tanδ) (Table 6, Example 7, at 20° C.): 0.015% | Volume resistivity (Table 6, Example 7, at 20° C.): 8.79 × 10^14 Ω·cm
